Test results as given in patent publication US11173151B2, “Substituted triazole derivatives and uses thereof” (BAYER AKTIENGESELLSCHAFT, priority 2017, dated 2021).

Assays:
human V2 receptor = molecular target: T1, human V2 receptor (Homo sapiens, UniProt P30518); test: Cellular in vitro assay for determining vasopressin receptor activity, V2 receptor cell line (CHO, CRE-luciferase); assay type: cell-based; conditions: CHO cell line transfected with human V2 receptor; [Arg8]-vasopressin at EC50 concentration; read-out: IC50 hV2
T1 construct: expressed in transfected cells; host or cells: CHO K1 (ATCC) expressing firefly luciferase under a CRE-responsive promoter

human V1a receptor = molecular target: T2, human V1a receptor (Homo sapiens, UniProt P37288); test: Cellular in vitro assay for determining vasopressin receptor activity, V1a receptor cell line (CHO, aequorin luminescence); assay type: cell-based; conditions: for IC50: CHO cell line transfected with human V1a receptor, [Arg]-vasopressin at EC50 concentration, read-out: IC50 hV1a; for ratio IC50 hV2/hV1a: selectivity ratio IC50 hV2 / IC50 hV1a
T2 construct: expressed in transfected cells; host or cells: CHO K1 (ATCC), also stably transfected with a modified aequorin
Procedure, shortened: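 IC50 from inhibition of [Arg]-vasopressin (EC50 concentration)-evoked aequorin luminescence in CHO K1 cells, with 10-min compound pretreatment.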

T1 sequence (P30518 whole entry): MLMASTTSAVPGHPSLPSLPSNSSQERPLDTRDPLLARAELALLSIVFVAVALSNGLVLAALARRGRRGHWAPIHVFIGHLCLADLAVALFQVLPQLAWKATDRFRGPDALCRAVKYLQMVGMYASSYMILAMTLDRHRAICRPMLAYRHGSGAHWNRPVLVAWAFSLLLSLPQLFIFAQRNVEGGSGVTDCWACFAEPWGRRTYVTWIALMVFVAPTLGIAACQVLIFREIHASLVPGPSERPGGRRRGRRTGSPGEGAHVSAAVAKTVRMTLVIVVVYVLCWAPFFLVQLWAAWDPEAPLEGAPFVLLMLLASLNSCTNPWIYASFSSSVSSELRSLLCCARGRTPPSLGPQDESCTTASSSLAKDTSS
T2 sequence (P37288 whole entry): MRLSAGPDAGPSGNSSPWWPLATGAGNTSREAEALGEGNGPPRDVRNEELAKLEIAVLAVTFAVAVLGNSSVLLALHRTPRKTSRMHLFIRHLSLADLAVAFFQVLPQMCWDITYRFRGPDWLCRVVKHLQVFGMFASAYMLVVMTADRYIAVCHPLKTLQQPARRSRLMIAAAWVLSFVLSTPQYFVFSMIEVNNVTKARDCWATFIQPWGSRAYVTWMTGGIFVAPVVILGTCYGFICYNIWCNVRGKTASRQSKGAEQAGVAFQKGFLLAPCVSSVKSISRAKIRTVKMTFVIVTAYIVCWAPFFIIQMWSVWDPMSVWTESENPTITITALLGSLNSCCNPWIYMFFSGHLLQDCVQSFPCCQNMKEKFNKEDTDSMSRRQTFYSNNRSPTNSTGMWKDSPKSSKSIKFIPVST

| Structure (SMILES) | IC50 (human V2 receptor) | IC50 (human V1a receptor) | ratio IC50 hV2/hV1a (human V1a receptor) |
| --- | --- | --- | --- |
| O=C(NCCC(F)(F)F)c1cccnc1-n1cnc(Cn2nc(-c3ccc(Cl)cc3)n(C[C@H](O)C(F)(F)F)c2=O)n1 [Example 497, 2-[3-({3-(4-chlorophenyl)-5-oxo-4-[(2S)-3,3,3-trifluoro-2-hydroxypropyl]-4,5-dihydro-1H-1,2,4-triazol-1-yl}methyl)-1H-1,2,4-triazol-1-yl]-N-(3,3,3-trifluoropropyl)pyridine-3-carboxamide] | 490 nM | 26.5 nM | 18.5 |
| O=C(NC1CC(F)(F)C1)c1cccnc1-n1cnc(Cn2nc(-c3ccc(Cl)cc3)n(C[C@H](O)C(F)(F)F)c2=O)n1 [Example 498, 2-[3-({3-(4-Chlorophenyl)-5-oxo-4-[(2S)-3,3,3-trifluoro-2-hydroxypropyl]-4,5-dihydro-1H-1,2,4-triazol-1-yl}methyl)-1H-1,2,4-triazol-1-yl]-N-(3,3-difluorocyclobutyl)pyridine-3-carboxamide] | 470 nM | 10.5 nM | 44.8 |
| O=C(NCC1CC1)c1cccnc1-n1cnc(Cn2nc(-c3ccc(Cl)cc3)n(C[C@H](O)C(F)(F)F)c2=O)n1 [Example 499, 2-[3-({3-(4-Chlorophenyl)-5-oxo-4-[(2S)-3,3,3-trifluoro-2-hydroxypropyl]-4,5-dihydro-1H-1,2,4-triazol-1-yl}methyl)-1H-1,2,4-triazol-1-yl]-N-(cyclopropylmethyl)pyridine-3-carboxamide] | 505 nM | 15 nM | 33.7 |
| O=C(NC1CC1(F)F)c1cccnc1-n1cnc(Cn2nc(-c3ccc(Cl)cc3)n(C[C@H](O)C(F)(F)F)c2=O)n1 (stereo partly drawn) [Example 500, 2-[3-({3-(4-Chlorophenyl)-5-oxo-4-[(2S)-3,3,3-trifluoro-2-hydroxypropyl]-4,5-dihydro-1H-1,2,4-triazol-1-yl}methyl)-1H-1,2,4-triazol-1-yl]-N-(2,2-difluorocyclopropyl)pyridine-3-carboxamide] | 305 nM | 6.8 nM | 44.9 |
| COC[C@H]1CCCN1C(=O)c1cccnc1-n1cnc(Cn2nc(-c3ccc(Cl)cc3)n(C[C@H](O)C(F)(F)F)c2=O)n1 [Example 501, 5-(4-Chlorophenyl)-2-{[1-(3-{[(2R)-2-(methoxymethyl)pyrrolidin-1-yl]carbonyl}pyridin-2-yl)-1H-1,2,4-triazol-3-yl]methyl}-4-[(2S)-3,3,3-trifluoro-2-hydroxypropyl]-2,4-dihydro-3H-1,2,4-triazol-3-one] | 530 nM | 30.5 nM | 17.4 |
| COC[C@@H]1CCCN1C(=O)c1cccnc1-n1cnc(Cn2nc(-c3ccc(Cl)cc3)n(C[C@H](O)C(F)(F)F)c2=O)n1 [Example 502, 5-(4-Chlorophenyl)-2-{[1-(3-{[(2S)-2-(methoxymethyl)pyrrolidin-1-yl]carbonyl}pyridin-2-yl)-1H-1,2,4-triazol-3-yl]methyl}-4-[(2S)-3,3,3-trifluoro-2-hydroxypropyl]-2,4-dihydro-3H-1,2,4-triazol-3-one] | 2000 nM | 29.5 nM | 67.8 |
| CC1(NC(=O)c2cccnc2-n2cnc(Cn3nc(-c4ccc(Cl)cc4)n(C[C@H](O)C(F)(F)F)c3=O)n2)CC1 [Example 505, 2-[3-({3-(4-Chlorophenyl)-5-oxo-4-[(2S)-3,3,3-trifluoro-2-hydroxypropyl]-4,5-dihydro-1H-1,2,4-triazol-1-yl}methyl)-1H-1,2,4-triazol-1-yl]-N-(1-methylcyclopropyl)pyridine-3-carboxamide] | 55 nM | 1.05 nM | 52.6 |
| N#CC1(NC(=O)c2cccnc2-n2cnc(Cn3nc(-c4ccc(Cl)cc4)n(C[C@H](O)C(F)(F)F)c3=O)n2)CC1 [Example 506, 2-[3-({3-(4-Chlorophenyl)-5-oxo-4-[(2S)-3,3,3-trifluoro-2-hydroxypropyl]-4,5-dihydro-1H-1,2,4-triazol-1-yl}methyl)-1H-1,2,4-triazol-1-yl]-N-(1-cyanocyclopropyl)pyridine-3-carboxamide] | 905 nM | 14 nM | 64.6 |
| O=C1CN(c2nc(Cn3nc(-c4ccc(Cl)cc4)n(C[C@H](O)C(F)(F)F)c3=O)nn2-c2cccnc2C(=O)NCC(F)(F)F)CCN1 [Example 509, 3-[3-({3-(4-Chlorophenyl)-5-oxo-4-[(2S)-3,3,3-trifluoro-2-hydroxypropyl]-4,5-dihydro-1H-1,2,4-triazol-1-yl}methyl)-5-(3-oxopiperazin-1-yl)-1H-1,2,4-triazol-1-yl]-N-(2,2,2-trifluoroethyl)pyridine-2-carboxamide] | 32000 nM | 2650 nM | 12.1 |
| O=C1CN(C(=O)c2nc(Cn3nc(-c4ccc(Cl)cc4)n(C[C@H](O)C(F)(F)F)c3=O)nn2-c2cnccc2C(=O)NCC(F)(F)F)CCN1 [Example 510, 3-{3-({3-(4-Chlorophenyl)-5-oxo-4-[(2S)-3,3,3-trifluoro-2-hydroxypropyl]-4,5-dihydro-1H-1,2,4-triazol-1-yl}methyl)-5-[(3-oxopiperazin-1-yl)carbonyl]-1H-1,2,4-triazol-1-yl}-N-(2,2,2-trifluoroethyl)pyridine-4-carboxamide] | 8900 nM | 9950 nM | 0.9 |
| O=C1CN(C(=O)c2nc(Cn3nc(-c4ccc(Cl)cc4)n(C[C@H](O)C(F)(F)F)c3=O)nn2-c2cnccc2C(=O)NCCC(F)(F)F)CCN1 [Example 511, 3-{3-({3-(4-Chlorophenyl)-5-oxo-4-[(2S)-3,3,3-trifluoro-2-hydroxypropyl]-4,5-dihydro-1H-1,2,4-triazol-1-yl}methyl)-5-[(3-oxopiperazin-1-yl)carbonyl]-1H-1,2,4-triazol-1-yl}-N-(3,3,3-trifluoropropyl)pyridine-4-carboxamide] | 1450 nM | 1650 nM | 0.9 |
| O=C1CN(C(=O)c2nc(Cn3nc(-c4ccc(Cl)cc4)n(C[C@H](O)C(F)(F)F)c3=O)nn2-c2ncccc2C(=O)NCCC(F)(F)F)CCN1 [Example 512, 2-{3-({3-(4-Chlorophenyl)-5-oxo-4-[(2S)-3,3,3-trifluoro-2-hydroxypropyl]-4,5-dihydro-1H-1,2,4-triazol-1-yl}methyl)-5-[(3-oxopiperazin-1-yl)carbonyl]-1H-1,2,4-triazol-1-yl}-N-(3,3,3-trifluoropropyl)pyridine-3-carboxamide] | 1250 nM | 3600 nM | 0.3 |
| O=C1CN(C(=O)c2nc(Cn3nc(-c4ccc(Cl)cc4)n(C[C@H](O)C(F)(F)F)c3=O)nn2-c2ncccc2C(=O)NC2CC2)CCN1 [Example 513, 2-{3-({3-(4-Chlorophenyl)-5-oxo-4-[(2S)-3,3,3-trifluoro-2-hydroxypropyl]-4,5-dihydro-1H-1,2,4-triazol-1-yl}methyl)-5-[(3-oxopiperazin-1-yl)carbonyl]-1H-1,2,4-triazol-1-yl}-N-cyclopropylpyridine-3-carboxamide] | 5450 nM | 2400 nM | 2.3 |
| O=C1CN(C(=O)c2nc(Cn3nc(-c4ccc(Cl)cc4)n(C[C@H](O)C(F)(F)F)c3=O)nn2-c2cnccc2C(=O)NC2CC2)CCN1 [Example 514, 3-{3-({3-(4-Chlorophenyl)-5-oxo-4-[(2S)-3,3,3-trifluoro-2-hydroxypropyl]-4,5-dihydro-1H-1,2,4-triazol-1-yl}methyl)-5-[(3-oxopiperazin-1-yl)carbonyl]-1H-1,2,4-triazol-1-yl}-N-cyclopropylpyridine-4-carboxamide] | 1250 nM | 340 nM | 3.7 |
| CC1(NC(=O)c2ccncc2-n2nc(Cn3nc(-c4ccc(Cl)cc4)n(C[C@H](O)C(F)(F)F)c3=O)nc2C(=O)N2CCNC(=O)C2)CC1 [Example 515, 3-{3-({3-(4-Chlorophenyl)-5-oxo-4-[(2S)-3,3,3-trifluoro-2-hydroxypropyl]-4,5-dihydro-1H-1,2,4-triazol-1-yl}methyl)-5-[(3-oxopiperazin-1-yl)carbonyl]-1H-1,2,4-triazol-1-yl}-N-(1-methylcyclopropyl)pyridine-4-carboxamide] | 2250 nM | 2000 nM | 1.1 |
| O=C(NCC(F)(F)F)c1ccncc1-n1nc(Cn2nc(-c3ccc(Cl)cc3)n(C[C@H](O)C(F)(F)F)c2=O)nc1C(=O)N1CCS(=O)(=O)CC1 [Example 518, 3-{3-({3-(4-Chlorophenyl)-5-oxo-4-[(2S)-3,3,3-trifluoro-2-hydroxypropyl]-4,5-dihydro-1H-1,2,4-triazol-1-yl}methyl)-5-[(1,1-dioxidothiomorpholin-4-yl)carbonyl]-1H-1,2,4-triazol-1-yl}-N-(2,2,2-trifluoroethyl)pyridine-4-carboxamide] | 480 nM | 955 nM | 0.5 |
| O=C(NCCC(F)(F)F)c1ccncc1-n1nc(Cn2nc(-c3ccc(Cl)cc3)n(C[C@H](O)C(F)(F)F)c2=O)nc1C(=O)N1CCS(=O)(=O)CC1 [Example 519, 3-{3-({3-(4-Chlorophenyl)-5-oxo-4-[(2S)-3,3,3-trifluoro-2-hydroxypropyl]-4,5-dihydro-1H-1,2,4-triazol-1-yl}methyl)-5-[(1,1-dioxidothiomorpholin-4-yl)carbonyl]-1H-1,2,4-triazol-1-yl}-N-(3,3,3-trifluoropropyl)pyridine-4-carboxamide] | 925 nM | 1350 nM | 0.7 |
